The values below come from patent US20250319019A1, “BUCCOMUCOADHESIVE PATCH-BASED DRUG DELIVERY SYSTEM FOR TACROLIMUS” (priority 2022, published 2025).

The nature of data set [1]: In-vivo pharmacokinetic evaluation, single dose. The arrangement: species or system New Zealand White rabbits. To be noted: New Zealand White, whole blood. As for the experimental part: The study was performed in New Zealand White rabbits as per the CPCSEA guidance. Overnight fasted animals were anaesthetised with Ketamine (30-40 mg/kg) and Xylazine (10 mg/kg) and 1 mg BAPTac patch was administered on the buccal surface of the oral cavity. The control group was administered 1 mg tacrolimus in PBS and 30% Ethanol. 0.5-0.75 ml of blood was taken from each rabbit via the marginal ear vein using 23 gauge needles through a butterfly cannula. The blood samples were collected before initiation of the treatment and after the administration of oral Tacrolimus or Tacrolimus-SLN-loaded buccal patch at time intervals of 15 min, 30 min, 1 h, 1.5 h, 2 h, 4 h, 6 h, 8 h, 12 h and 24 hours for the single dose PK study. Blood samples were collected in EDTA tubes, aliquoted and stored in amber-coloured tubes at −80° C. until quantification by LC-MS/MS.

The conditions of data set [2]: poor and variable, intestinal absorption; background statement; cited from earlier work.

Compound `C=CC[C@@H]1/C=C(\C)C[C@H](C)C[C@H](OC)[C@H]2O[C@@](O)(C(=O)C(=O)N3CCCC[C@H]3C(=O)O[C@H](/C(C)=C/[C@@H]3CC[C@@H](O)[C@H](OC)C3)[C@H](C)[C@@H](O)CC1=O)[C@H](C)C[C@@H]2OC` (relative stereo) [Tacrolimus, [3S[3R*[E(1S*,3S*,4S*)],4S*,5R*,8S*,9E,12R*,14R*,15S*,16R*,18S*,19S*, 26aR*]]5,6,8,11,12,13,14,15,16,17,18,19,24,25,26,26a-hexadecahydro-5,19-dihydroxy-3-[2-(4-hydroxy-3-methoxycyclohexyl)-1-methylethenyl]-14,16-dimethoxy-4,10,12,18-tetramethyl-8-(2-propenyl)-15,19-epoxy-3H-pyrido[2,1-c][1,4]oxaazacyclotricosine-1,7,20,21(4H,23H)-tetrone, monohydrate] registered a concentration at 0.25 h in data set [1] (1 mg, heading: Average Tac conc., rabbit blood, 0.25 (15 mins) after single 1 mg dose (oral or buccal patch), LC-MS/MS) of 3.6 ng/mL. The compound also had a concentration at 0.5 h in data set [1] (1 mg, heading: Average Tac conc., rabbit blood, 0.5 (30 mins) after single 1 mg dose (oral or buccal patch)) of 12.3 ng/mL. Moreover, the concentration at 1 h in data set [1] (1 mg, heading: Average Tac conc., rabbit blood, 1.0 (60 mins) after single 1 mg dose (oral or buccal patch)) turned out to be 17.2 ng/mL. Besides, the concentration at 1.5 h in data set [1] (1 mg, heading: Average Tac conc., rabbit blood, 1.5 (90 mins) after single 1 mg dose (oral or buccal patch)) was 46.9 ng/mL. The same compound returned a concentration at 2 h in data set [1] (1 mg, heading: Average Tac conc., rabbit blood, 2.0 (120 mins) after single 1 mg dose (oral or buccal patch)) of 31.3 ng/mL. The compound further showed a concentration at 4 h in data set [1] (1 mg, heading: Average Tac conc., rabbit blood, 4.0 (240 mins) after single 1 mg dose (oral or buccal patch)) of 14.5 ng/mL. The compound also returned a concentration at 6 h in data set [1] (1 mg, heading: Average Tac conc., rabbit blood, 6.0 (480 mins) after single 1 mg dose (oral or buccal patch)) of 12.3 ng/mL. Moreover, the concentration at 8 h in data set [1] (1 mg, heading: Average Tac conc., rabbit blood, 8.0 (640 mins) after single 1 mg dose (oral or buccal patch)) is 11.8 ng/mL. Also, the concentration at 12 h in data set [1] (1 mg, heading: Average Tac conc., rabbit blood, 12.0 (720 mins) after single 1 mg dose (oral or buccal patch)) was determined as 7.9 ng/mL. Moreover, the concentration at 24 h in data set [1] (1 mg, heading: Average Tac conc., rabbit blood, 24.0 (1440 mins) after single 1 mg dose (oral or buccal patch)) came to 2.4 ng/mL. Further, the half-life in data set [1] (rabbit, single 1 mg dose (oral or buccal patch), read-out: Elimination t1/2 (converted)) was 2.73 ± 2.9 h. Moreover, the AUC(0-t) in data set [1] (rabbit, single 1 mg dose (oral or buccal patch), read-out: Mean AUC0-24) was 250 ± 78.2 ng·h/mL. The “bioavailability (average)” value in data set [2] is 25%.
